Results taken from patent publication US5612174A, “Photographic yellow dye-forming couplers and silver halide color photographic materials containing the same” (Fuji Photo Film Co., Ltd., priority 1994, dated 1997).

Assays:
[1] = Solubility of yellow couplers in 100 ml of ethyl acetate at 25° C.; type: physicochemical; conditions: for Solubility: 25° C.; for solubility in ethyl acetate relative to RY-1 and RY-2: in words
Protocol: Test for Solubility of Yellow Couplers in Organic Solvents:
A test was conducted in order to determine what grams of the yellow coupler shown in Table A below are dissolved in 100 ml of ethyl acetate at 25° C. The yellow coupler was gradually added to 100 ml of ethyl acetate by 0.1 g at a time and stirred for 5 minutes, whereupon the amount not dissolved was referred to as a saturation point. The results are shown in Table A. As comparative couplers, used were the following RY-1 and RY-2. [drawing 15]
Solubility of Couplers in 100 ml of
Ethyl Acetate (at 25° C.)

[2] = Solubility of yellow couplers in high boiling point organic solvents Solv-2, Solv-3 and Solv-9; type: physicochemical; conditions: in words
Protocol: The same test as above was conducted to determine the solubility of the yellow couplers in known high boiling point organic solvents Solv-2, Solv-3 and Solv-9 mentioned below.

SMILES | Solubility [1] [g/100 ml] | solubility in known high boiling point organic solvents relative to RY-1 and RY-2 [2] | solubility in ethyl acetate relative to RY-1 and RY-2 [1]
CCCCCCCCCCCCCCCCCC(=O)Nc1ccc(Cl)c(NC(=O)C(C(=O)C(C)(C)C)N2C(=O)NC(C)(C)C2=O)c1 (centres unmarked) [RY-2, reference compound] | 8.5 | – | –
CCCCCCCCC=CCCCCCCCC(=O)Nc1ccc(Cl)c(NC(=O)C(C(=O)C(C)(C)C)N2C(=O)NC(C)(C)C2=O)c1 (centres unmarked) [Y-1] | 21.0 | much larger solubility in such solvents than the known yellow couplers of RY-1 and RY-2 | much larger solubility in ethyl acetate than the known yellow couplers of RY-1 and RY-2
CCC=CCC=CCC=CCCCCCCCC(=O)Nc1ccc(Cl)c(NC(=O)C(C(=O)C(C)(C)C)N2C(=O)NC(C)(C)C2=O)c1 (centres unmarked) [Y-3] | 21.4 | much larger solubility in such solvents than the known yellow couplers of RY-1 and RY-2 | much larger solubility in ethyl acetate than the known yellow couplers of RY-1 and RY-2
CCCCCCCCC=CCCCCCCCC(=O)Nc1ccc(OC)c(NC(=O)C(C(=O)C(C)(C)C)N2C(=O)NC(C)(C)C2=O)c1 (centres unmarked) [Y-13] | 20.8 | much larger solubility in such solvents than the known yellow couplers of RY-1 and RY-2 | much larger solubility in ethyl acetate than the known yellow couplers of RY-1 and RY-2
CCCCCC=CCC=CCCCCCCCC(=O)Nc1ccc(Cl)c(NC(=O)C(C(=O)C(C)(C)C)N2C(=O)NC(C)(C)C2=O)c1 (centres unmarked) [Y-2] | 21.2 | much larger solubility in such solvents than the known yellow couplers of RY-1 and RY-2 | much larger solubility in ethyl acetate than the known yellow couplers of RY-1 and RY-2
CCC(Oc1ccc(C(C)(C)CC)cc1C(C)(C)CC)C(=O)Nc1ccc(Cl)c(NC(=O)C(C(=O)C(C)(C)C)N2C(=O)NC(C)(C)C2=O)c1 (centres unmarked) [RY-1, reference compound] | 15.8 | – | –
